These results are taken from ChEMBL document CHEMBL3352260, “Identification and development of biphenyl substituted iminosugars as improved dual glucosylceramide synthase/neutral glucosylceramidase inhibitors” (J Med Chem, 2014).

A word on the IC50: it is the concentration that gives 50% inhibition. Read a low IC50 as greater potency in that assay.

Assay [1] has as its target Maltase-glucoamylase (Homo sapiens, UniProt O43451). The assay is described as follows: Inhibition of intestinal maltase (unknown origin).
Assay [2] has as its target Sucrase-isomaltase, intestinal (Homo sapiens, UniProt P14410). The assay is described as follows: Inhibition of intestinal sucrase (unknown origin).
The target of assay [3] is Lactase/phlorizin hydrolase (Homo sapiens, UniProt P09848). The assay is described as follows: Inhibition of intestinal lactase (unknown origin).
In assay [4] the target is T1, Beta-glucosidase (Homo sapiens, UniProt Q9HCG7).
T1 sequence (Q9HCG7 whole entry): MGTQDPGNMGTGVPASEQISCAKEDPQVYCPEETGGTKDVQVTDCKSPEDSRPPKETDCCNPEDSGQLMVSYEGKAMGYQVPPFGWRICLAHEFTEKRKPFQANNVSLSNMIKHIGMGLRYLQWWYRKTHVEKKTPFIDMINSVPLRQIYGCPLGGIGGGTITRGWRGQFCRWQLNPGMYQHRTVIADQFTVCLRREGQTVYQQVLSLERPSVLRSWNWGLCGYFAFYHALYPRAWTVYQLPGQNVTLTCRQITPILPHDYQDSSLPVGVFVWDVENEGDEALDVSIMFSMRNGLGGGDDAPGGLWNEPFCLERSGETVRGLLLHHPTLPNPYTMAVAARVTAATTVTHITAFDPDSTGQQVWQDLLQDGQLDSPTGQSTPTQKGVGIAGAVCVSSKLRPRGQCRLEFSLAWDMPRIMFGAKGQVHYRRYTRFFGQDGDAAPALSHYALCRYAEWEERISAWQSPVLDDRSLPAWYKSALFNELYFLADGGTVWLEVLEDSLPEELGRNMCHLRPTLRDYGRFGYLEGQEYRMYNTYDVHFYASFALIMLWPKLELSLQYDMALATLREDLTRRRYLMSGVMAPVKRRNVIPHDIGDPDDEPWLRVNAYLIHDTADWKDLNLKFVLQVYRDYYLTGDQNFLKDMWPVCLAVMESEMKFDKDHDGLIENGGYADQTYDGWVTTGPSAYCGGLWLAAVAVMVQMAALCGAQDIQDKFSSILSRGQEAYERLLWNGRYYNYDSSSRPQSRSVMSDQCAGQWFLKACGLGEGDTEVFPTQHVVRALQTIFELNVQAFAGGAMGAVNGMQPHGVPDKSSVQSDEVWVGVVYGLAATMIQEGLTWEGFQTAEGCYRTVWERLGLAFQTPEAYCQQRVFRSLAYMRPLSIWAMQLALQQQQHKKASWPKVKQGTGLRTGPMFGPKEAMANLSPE

Assay [5] concerns the target T2, Lysosomal acid glucosylceramidase (Homo sapiens, UniProt P04062).
T2 sequence (P04062 whole entry): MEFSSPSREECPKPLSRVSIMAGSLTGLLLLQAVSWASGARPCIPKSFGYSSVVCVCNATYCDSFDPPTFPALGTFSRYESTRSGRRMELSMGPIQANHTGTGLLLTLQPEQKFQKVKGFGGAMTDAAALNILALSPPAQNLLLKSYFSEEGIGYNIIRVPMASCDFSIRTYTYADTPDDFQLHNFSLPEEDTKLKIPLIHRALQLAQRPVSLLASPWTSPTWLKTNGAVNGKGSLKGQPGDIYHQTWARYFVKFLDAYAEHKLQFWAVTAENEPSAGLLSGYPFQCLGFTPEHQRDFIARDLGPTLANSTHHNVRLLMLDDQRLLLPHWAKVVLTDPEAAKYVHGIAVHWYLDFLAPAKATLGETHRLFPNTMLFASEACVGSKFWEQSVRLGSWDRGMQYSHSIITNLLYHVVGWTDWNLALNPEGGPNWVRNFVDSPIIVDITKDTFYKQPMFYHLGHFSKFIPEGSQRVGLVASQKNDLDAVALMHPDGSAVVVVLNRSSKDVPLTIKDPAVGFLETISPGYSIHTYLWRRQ

In assay [6] the target is T3, Ceramide glucosyltransferase (Homo sapiens, UniProt Q16739).
T3 sequence (Q16739 whole entry): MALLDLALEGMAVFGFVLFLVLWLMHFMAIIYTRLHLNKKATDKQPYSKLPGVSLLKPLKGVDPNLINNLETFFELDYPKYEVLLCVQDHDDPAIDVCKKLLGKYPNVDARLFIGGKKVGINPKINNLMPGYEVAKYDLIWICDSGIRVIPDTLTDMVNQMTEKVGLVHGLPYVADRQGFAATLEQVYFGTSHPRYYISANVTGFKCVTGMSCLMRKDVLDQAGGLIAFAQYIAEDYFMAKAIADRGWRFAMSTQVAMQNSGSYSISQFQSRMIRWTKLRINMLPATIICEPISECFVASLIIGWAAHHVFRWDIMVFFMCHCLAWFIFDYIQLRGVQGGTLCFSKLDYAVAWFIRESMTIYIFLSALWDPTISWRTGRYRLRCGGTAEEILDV

A value given as a limit tells only on which side of the number the result lay.

Maltase-glucoamylase, sequence (O43451 whole entry): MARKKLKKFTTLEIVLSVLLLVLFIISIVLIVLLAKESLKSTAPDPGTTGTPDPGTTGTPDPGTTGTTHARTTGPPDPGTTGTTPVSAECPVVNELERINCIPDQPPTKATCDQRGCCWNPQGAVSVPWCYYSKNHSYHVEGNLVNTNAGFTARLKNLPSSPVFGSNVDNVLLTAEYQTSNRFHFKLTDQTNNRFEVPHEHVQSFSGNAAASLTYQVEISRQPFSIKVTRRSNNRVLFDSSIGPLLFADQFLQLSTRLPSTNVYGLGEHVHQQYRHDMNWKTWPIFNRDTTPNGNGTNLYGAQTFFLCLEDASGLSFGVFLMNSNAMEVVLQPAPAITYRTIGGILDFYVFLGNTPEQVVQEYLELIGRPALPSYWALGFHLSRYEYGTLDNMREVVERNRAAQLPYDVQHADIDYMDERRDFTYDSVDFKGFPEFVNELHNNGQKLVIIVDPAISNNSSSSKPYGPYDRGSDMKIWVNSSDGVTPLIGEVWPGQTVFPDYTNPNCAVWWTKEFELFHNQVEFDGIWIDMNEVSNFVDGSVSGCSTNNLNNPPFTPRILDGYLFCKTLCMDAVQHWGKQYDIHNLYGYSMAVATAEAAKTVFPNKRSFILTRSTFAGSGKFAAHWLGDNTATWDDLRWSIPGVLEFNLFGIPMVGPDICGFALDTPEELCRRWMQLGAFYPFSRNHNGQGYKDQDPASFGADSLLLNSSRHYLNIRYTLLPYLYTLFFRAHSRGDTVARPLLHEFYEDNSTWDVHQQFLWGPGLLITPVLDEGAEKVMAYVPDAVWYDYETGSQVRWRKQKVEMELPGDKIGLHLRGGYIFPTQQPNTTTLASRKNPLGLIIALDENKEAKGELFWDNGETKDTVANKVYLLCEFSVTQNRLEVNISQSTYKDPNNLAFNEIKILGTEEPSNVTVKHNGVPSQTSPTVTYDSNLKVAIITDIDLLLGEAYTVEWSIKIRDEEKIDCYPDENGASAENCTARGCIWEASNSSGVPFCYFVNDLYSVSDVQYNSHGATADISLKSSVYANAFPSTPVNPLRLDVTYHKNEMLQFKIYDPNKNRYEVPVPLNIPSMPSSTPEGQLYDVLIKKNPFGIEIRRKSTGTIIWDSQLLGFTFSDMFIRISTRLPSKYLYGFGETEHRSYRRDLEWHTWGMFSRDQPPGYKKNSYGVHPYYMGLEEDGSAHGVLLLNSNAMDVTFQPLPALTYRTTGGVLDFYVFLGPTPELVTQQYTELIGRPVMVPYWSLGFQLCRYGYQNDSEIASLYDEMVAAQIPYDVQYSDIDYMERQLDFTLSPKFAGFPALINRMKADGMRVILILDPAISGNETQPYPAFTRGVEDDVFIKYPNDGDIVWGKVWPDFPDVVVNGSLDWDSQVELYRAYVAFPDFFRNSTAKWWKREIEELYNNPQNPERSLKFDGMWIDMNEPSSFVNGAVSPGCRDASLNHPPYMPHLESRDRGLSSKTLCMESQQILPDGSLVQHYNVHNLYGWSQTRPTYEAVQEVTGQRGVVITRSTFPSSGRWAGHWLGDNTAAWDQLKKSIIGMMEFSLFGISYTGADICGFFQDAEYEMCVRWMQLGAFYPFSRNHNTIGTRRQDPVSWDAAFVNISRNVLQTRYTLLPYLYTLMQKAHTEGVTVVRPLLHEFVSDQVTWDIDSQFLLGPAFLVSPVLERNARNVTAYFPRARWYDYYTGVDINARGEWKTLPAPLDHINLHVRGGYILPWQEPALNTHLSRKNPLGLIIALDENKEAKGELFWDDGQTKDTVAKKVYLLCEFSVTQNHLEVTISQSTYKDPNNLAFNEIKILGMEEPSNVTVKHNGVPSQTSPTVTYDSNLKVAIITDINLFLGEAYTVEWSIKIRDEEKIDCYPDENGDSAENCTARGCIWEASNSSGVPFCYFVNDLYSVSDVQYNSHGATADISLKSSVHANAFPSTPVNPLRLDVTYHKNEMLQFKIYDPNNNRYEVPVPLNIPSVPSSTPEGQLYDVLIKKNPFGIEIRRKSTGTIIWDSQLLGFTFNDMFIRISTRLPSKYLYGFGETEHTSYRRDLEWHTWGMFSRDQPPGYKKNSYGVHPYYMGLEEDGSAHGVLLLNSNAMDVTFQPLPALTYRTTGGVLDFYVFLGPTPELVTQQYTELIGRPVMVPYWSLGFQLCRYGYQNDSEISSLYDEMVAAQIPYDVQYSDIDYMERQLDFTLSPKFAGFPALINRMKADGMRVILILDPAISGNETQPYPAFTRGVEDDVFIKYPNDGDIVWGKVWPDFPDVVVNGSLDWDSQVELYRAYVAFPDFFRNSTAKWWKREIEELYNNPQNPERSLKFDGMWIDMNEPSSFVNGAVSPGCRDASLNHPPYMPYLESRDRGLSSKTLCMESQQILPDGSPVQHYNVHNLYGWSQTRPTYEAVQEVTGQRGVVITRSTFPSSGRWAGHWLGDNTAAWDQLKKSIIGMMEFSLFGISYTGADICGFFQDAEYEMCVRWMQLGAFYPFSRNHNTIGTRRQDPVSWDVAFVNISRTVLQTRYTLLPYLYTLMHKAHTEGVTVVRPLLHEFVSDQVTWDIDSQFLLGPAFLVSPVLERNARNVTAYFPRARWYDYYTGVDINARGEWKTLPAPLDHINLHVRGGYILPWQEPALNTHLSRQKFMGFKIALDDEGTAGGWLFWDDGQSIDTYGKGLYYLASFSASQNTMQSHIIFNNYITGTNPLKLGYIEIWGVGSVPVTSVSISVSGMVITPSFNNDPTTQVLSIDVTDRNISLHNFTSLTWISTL
Lactase/phlorizin hydrolase, sequence (P09848 869-1927 limits assumed): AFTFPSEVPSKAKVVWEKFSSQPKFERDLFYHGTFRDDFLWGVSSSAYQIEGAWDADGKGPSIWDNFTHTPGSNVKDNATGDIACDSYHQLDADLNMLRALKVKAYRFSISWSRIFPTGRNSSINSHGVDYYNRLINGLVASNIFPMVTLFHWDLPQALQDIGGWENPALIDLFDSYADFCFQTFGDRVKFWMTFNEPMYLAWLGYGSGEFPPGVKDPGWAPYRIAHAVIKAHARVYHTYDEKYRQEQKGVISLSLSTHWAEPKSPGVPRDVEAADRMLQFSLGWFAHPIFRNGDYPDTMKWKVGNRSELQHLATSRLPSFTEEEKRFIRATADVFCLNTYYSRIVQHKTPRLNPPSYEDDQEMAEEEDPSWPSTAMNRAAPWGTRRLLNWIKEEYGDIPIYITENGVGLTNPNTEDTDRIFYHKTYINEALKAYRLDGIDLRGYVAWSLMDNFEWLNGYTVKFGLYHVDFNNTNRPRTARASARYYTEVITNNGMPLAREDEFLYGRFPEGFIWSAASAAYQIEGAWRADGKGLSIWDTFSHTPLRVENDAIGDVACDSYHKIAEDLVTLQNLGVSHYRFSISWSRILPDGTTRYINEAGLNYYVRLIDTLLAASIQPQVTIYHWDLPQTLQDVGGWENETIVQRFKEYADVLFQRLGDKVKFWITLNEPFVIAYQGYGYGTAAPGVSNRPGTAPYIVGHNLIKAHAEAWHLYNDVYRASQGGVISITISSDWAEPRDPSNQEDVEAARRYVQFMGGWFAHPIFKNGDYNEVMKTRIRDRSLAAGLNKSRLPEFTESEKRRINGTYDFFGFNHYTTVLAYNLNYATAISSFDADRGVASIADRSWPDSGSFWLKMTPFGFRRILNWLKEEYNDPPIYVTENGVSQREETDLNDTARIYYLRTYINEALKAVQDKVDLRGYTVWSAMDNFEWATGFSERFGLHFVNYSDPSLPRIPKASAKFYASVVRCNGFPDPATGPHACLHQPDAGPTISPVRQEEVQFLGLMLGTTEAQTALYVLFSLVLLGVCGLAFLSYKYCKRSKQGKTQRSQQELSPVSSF

As for `OC[C@@H]1[C@@H](O)[C@H](O)[C@@H](O)CN1CCCCCOCc1ccc(-c2ccccc2)cc1C(F)(F)F`, the IC50 in assay [1] came to 8000 nM; in assay [2], 1500 nM; in assay [3], 50000 nM.
For the compound `OC[C@H]1[C@@H](O)[C@H](O)[C@@H](O)CN1CCCCCOCc1ccc(-c2ccccc2)c(C(F)(F)F)c1`, the IC50 is > 100000 nM in assay [1], > 100000 nM in assay [2] and 100000 nM in assay [3].
`OC[C@H]1[C@@H](O)[C@H](O)[C@@H](O)CN1CCCCCOCc1ccccc1`: the half-maximal inhibitory concentration (IC50) stood at 3 nM in assay [4], 10000 nM in assay [5] and 200 nM in assay [6].
On the same counts, the results for `O=C(CCCCCN1C[C@H](O)[C@@H](O)[C@H](O)[C@H]1CO)NC12CC3CC(CC(C3)C1)C2` are 9 nM, 500 nM and 1000 nM.
The like results for `OC[C@@H]1[C@@H](O)[C@H](O)[C@@H](O)CN1CCCCCOCc1ccc(-c2cncnc2)cc1` were, in that order, 25 nM, 10000 nM and 2000 nM.
On to `OC[C@@H]1[C@@H](O)[C@H](O)[C@@H](O)CN1CCCCCOCC1CCCCC1`, for which the figures for the IC50 in assay [4], in assay [5] and in assay [6] were 4 nM, 1500 nM and 500 nM, respectively.
Take `OC[C@H]1[C@@H](O)[C@H](O)[C@@H](O)CN1CCCCCOCC1CCCCC1`: the IC50 in assay [4] turned out to be 6 nM; in assay [5] it was 60000 nM; in assay [6] it was 70 nM.
Regarding `OC[C@H]1[C@@H](O)[C@H](O)[C@@H](O)CN1CCCCCOCc1ccccc1-c1ccccc1`, the IC50 in assay [1] was > 100000 nM; in assay [2], 95000 nM; in assay [3], 25000 nM.
For the compound `OC[C@H]1[C@@H](O)[C@H](O)[C@@H](O)CN1CCCC(F)(F)COCc1ccc(-c2ccccc2)cc1`, the IC50 was > 100000 nM in assay [1], > 100000 nM in assay [2] and 80000 nM in assay [3].
Regarding `OC[C@H]1[C@@H](O)[C@H](O)[C@@H](O)CN1CCCCCOCc1ccc2ccc3cccc4ccc1c2c34`, the IC50 in assay [4] worked out at 1 nM; in assay [5], 15000 nM; in assay [6], 3 nM.
For the compound `OC[C@@H]1[C@@H](O)[C@H](O)[C@@H](O)CN1CCCCCOCc1ccc(-c2cccc(F)c2)cc1`, it took 1 nM to reach half-maximal inhibition in assay [4] (IC50).
For `OC[C@@H]1[C@@H](O)[C@H](O)[C@@H](O)CN1CCCCCOCC1C2CC3CC(C2)CC1C3` (some centres not stated), the results for the IC50 in assay [4], in assay [5] and in assay [6] were 1 nM, 400 nM and 300 nM, respectively.
In the case of `OC[C@@H]1[C@@H](O)[C@H](O)[C@@H](O)CN1CCCCCOCc1ccc(-c2ccccc2F)cc1`, half-maximal inhibition in assay [6] (IC50) required 75 nM.
Turning to `O=C(CCCCCN1C[C@H](O)[C@@H](O)[C@H](O)[C@@H]1CO)NC12CC3CC(CC(C3)C1)C2`, the half-maximal inhibitory concentration (IC50) in assay [4] came out at 15 nM; in assay [5], 40000 nM; in assay [6] it was 400 nM.
As for `OC[C@H]1[C@@H](O)[C@H](O)[C@@H](O)CN1CCCCCOCc1ccc(-c2ccccc2)cc1F`, the figures for the IC50 in assay [1], in assay [2] and in assay [3] were > 100000 nM, > 100000 nM and 60000 nM, respectively.
As for `OC[C@@H]1[C@@H](O)[C@H](O)[C@@H](O)CN1CCCCCCOCC12CC3CC(CC(C3)C1)C2`, the IC50 stood at 2 nM in assay [4], 200 nM in assay [5] and 300 nM in assay [6].
Regarding `OC[C@@H]1[C@@H](O)[C@H](O)[C@@H](O)CN1CCCCCOCc1ccc(-c2ccc3c(c2)OCCO3)cc1`, the IC50 amounted to 30 nM in assay [4], 250 nM in assay [5] and 40 nM in assay [6].
As to `OC[C@@H]1[C@@H](O)[C@H](O)[C@@H](O)CN1CCCCCOCc1ccccc1`, the IC50 in assay [4] came out at 1 nM; in assay [5] it was 300 nM; in assay [6] it was 750 nM.
For `C[C@@H](OCCCCCN1C[C@H](O)[C@@H](O)[C@H](O)[C@@H]1CO)c1ccc(-c2ccccc2)cc1`, the IC50 is > 100000 nM in assay [1], > 100000 nM in assay [2] and 45000 nM in assay [3].
Turning to `OC[C@@H]1[C@@H](O)[C@H](O)[C@@H](O)CN1CCCCCOCc1ccc2ccccc2c1`, the IC50 in assay [4] came to 1 nM; in assay [5] it was 1000 nM; in assay [6], 3 nM.
For the compound `CC(C)CCC[C@@H](C)[C@H]1CC[C@H]2[C@@H]3CC=C4C[C@@H](OCCCCCN5C[C@H](O)[C@@H](O)[C@H](O)[C@H]5CO)CC[C@]4(C)[C@H]3CC[C@]12C`, the IC50 in assay [4] amounted to 5 nM; in assay [5], 500 nM; in assay [6], 1000 nM.
For the compound `C[C@H](OCCCCCN1C[C@H](O)[C@@H](O)[C@H](O)[C@@H]1CO)c1ccc(-c2ccccc2)cc1`, the IC50 in assay [1], in assay [2] and in assay [3] was > 100000 nM each time.
In turn, `OC[C@@H]1[C@@H](O)[C@H](O)[C@@H](O)CN1CCCCCOCc1ccc(-c2ccc3c(c2)OCCCO3)cc1` showed an IC50 in assay [4] of 15 nM.
As to `OC[C@H]1[C@@H](O)[C@H](O)[C@@H](O)CN1CCCCCOCC1C2CC3CC(C2)CC1C3` (some centres not stated), the half-inhibitory concentration (IC50) turned out to be 2 nM in assay [4], 10000 nM in assay [5] and 80 nM in assay [6].
Consider `OC[C@@H]1[C@@H](O)[C@H](O)[C@@H](O)CN1CCCCCOCc1ccc(-c2ccc3c(c2)OCO3)cc1`, for which the figures for the IC50 in assay [4] and in assay [5] were 2 nM and 500 nM, respectively.
For `OC[C@@H]1[C@@H](O)[C@H](O)[C@@H](O)CN1CCCCCOCc1ccccc1-c1ccccc1`, the IC50 in assay [1] is 1500 nM; in assay [2], 200 nM; in assay [3], 17000 nM.
For the compound `CC(C)CCC[C@@H](C)[C@H]1CC[C@H]2[C@@H]3CC=C4C[C@@H](OCCCCCN5C[C@H](O)[C@@H](O)[C@H](O)[C@@H]5CO)CC[C@]4(C)[C@H]3CC[C@]12C`, the results for the IC50 in assay [4], in assay [5] and in assay [6] were 20 nM, 15000 nM and 1000 nM, respectively.
`OC[C@H]1[C@@H](O)[C@H](O)[C@@H](O)CN1CCCCCOCc1ccc2ccccc2c1`: the results for the IC50 in assay [4], in assay [5] and in assay [6] were 1 nM, 50000 nM and 3 nM, respectively.
On the same counts, the results for `OC[C@H]1[C@@H](O)[C@H](O)[C@@H](O)CN1CCCCCCOCC12CC3CC(CC(C3)C1)C2` are 2.5 nM, 5000 nM and 250 nM.
For the compound `OC[C@@H]1[C@@H](O)[C@H](O)[C@@H](O)CN1CCCCCOCc1ccc(-c2ccccc2)cc1`, the results for the IC50 in assay [1] and in assay [2] were 2000 nM and 250 nM, respectively.
Turning to `COc1ccccc1-c1ccc(COCCCCCN2C[C@H](O)[C@@H](O)[C@H](O)[C@H]2CO)cc1`, the midpoint of inhibition in assay [4], the IC50, lay at 3 nM.
In the case of `OC[C@@H]1[C@@H](O)[C@H](O)[C@@H](O)CN1CCCCCOCc1ccc2ccc3cccc4ccc1c2c34`, the IC50 in assay [4] was found to be 3 nM; in assay [5], 500 nM; in assay [6], 3 nM.
On to `OC[C@H]1[C@@H](O)[C@H](O)[C@@H](O)CN1CCCCCOCc1ccc(-c2ccccc2)cc1`, for which the IC50 is > 100000 nM in assay [1] and 70000 nM in assay [2].
Compound `OC[C@@H]1[C@@H](O)[C@H](O)[C@@H](O)CN1CCCCCOCc1ccc(-c2cccnc2)cc1` displayed an IC50 in assay [6] of 2000 nM. This counts as single-digit micromolar.
Regarding `CC(C)=CCC/C(C)=C/CC/C(C)=C/CCOCCCCCN1C[C@H](O)[C@@H](O)[C@H](O)[C@@H]1CO`, the IC50 in assay [4] is 100 nM; in assay [5] it was 50000 nM; in assay [6] it was 2500 nM.
